pEC50, pIC50: −log10 of the molar value. ≈ marks a conversion by molar mass, not a printed value. Values belong to the compound of their own block, whether it stands above or below them. Calls of active or inactive are those of the source. The rule behind the calls is not given here.
How the values were obtained:
Escherichia coli [1] = assay: Antibacterial activity against kanamycin-resistant Escherichia coli K-12 JW 0451-2 harboring acrB747 deletion mutant assessed as growth inhibition after 18 hrs by geometric microdilution method; assay type: functional; settings: K-12 JW 0451-2, 18 h
Escherichia coli [2] = assay: Antibacterial activity against kanamycin-resistant Escherichia coli K-12 JW 3596-1 harboring rfaC733 deletion mutant assessed as growth inhibition after 18 hrs by geometric microdilution method; assay type: functional; settings: K-12 JW 3596-1, 18 h
Escherichia coli [3] = assay: Antibacterial activity against kanamycin-resistant Escherichia coli K-12 JW 5503-1 harboring tolc732 deletion mutant assessed as growth inhibition after 18 hrs by geometric microdilution method; assay type: functional; settings: K-12 JW 5503-1, 18 h
Escherichia coli [4] = assay: Antibacterial activity against Escherichia coli ATCC 25922 assessed as growth inhibition after 18 hrs by geometric microdilution method; assay type: functional
Pseudomonas aeruginosa = assay: Antibacterial activity against Pseudomonas aeruginosa ATCC 27853 assessed as growth inhibition after 18 hrs by geometric microdilution method; assay type: functional
Staphylococcus aureus = assay: Antibacterial activity against Staphylococcus aureus ATCC 29213 assessed as growth inhibition after 18 hrs by geometric microdilution method; assay type: functional
Bacterial 70S ribosome = assay: Binding affinity to Escherichia coli ribosome assessed as inhibition of transcription-translation activity preincubated for 30 mins followed by substrate addition measured after 5 mins by luciferase assay
[5] = Binding affinity to 2AP-labelled duplex RNA (unknown origin) by fluorescence spectrophotometric analysis

SMILES: N[C@@H]1C[C@H](N)[C@@]2(CC[C@@H](CNC(=O)[C@@H](N)Cc3c[nH]c4ccccc34)O2)[C@H](O)[C@H]1O
- MIC (Escherichia coli [1]): 32.5 µg/mL (≈ 77.8 µM)
- MIC (Escherichia coli [2]): > 131 µg/mL
- MIC (Escherichia coli [3]): 131 µg/mL (≈ 314 µM)
- MIC (Escherichia coli [4]; ATCC 25922, 18 h): 98 µg/mL (≈ 235 µM)
- MIC (Pseudomonas aeruginosa; ATCC 27853, 18 h): 65 µg/mL (≈ 156 µM)
- MIC (Staphylococcus aureus; ATCC 29213, 18 h): 8.4 µg/mL (≈ 20.1 µM)
- pIC50 (Bacterial 70S ribosome): 3.83

SMILES: NCCCC[C@H](N)C(=O)N[C@@H]1C[C@H](N)[C@@]2(C[C@H](O)[C@H](O)CO2)[C@H](O)[C@H]1O
- pIC50 (Bacterial 70S ribosome): 3.46
- pEC50 [5]: 6.05

SMILES: NCC[C@H](O)C(=O)N[C@@H]1C[C@H](N)[C@@]2(CC[C@@H](O)[C@@H](O)CO2)[C@H](O)[C@H]1O
- pIC50 (Bacterial 70S ribosome): < 3.22
- pEC50 [5]: 6.41

SMILES: N[C@@H]1C[C@H](N)[C@@]2(CC[C@@H](CNC(=O)[C@@H]3CCCN3)O2)[C@H](O)[C@H]1O
- pIC50 (Bacterial 70S ribosome): 3.81
- pEC50 [5]: 6.17

SMILES: N[C@@H]1C[C@H](N)[C@@]2(CC[C@@H](CNC(=O)[C@@H](N)Cc3ccc(O)cc3)O2)[C@H](O)[C@H]1O
- pIC50 (Bacterial 70S ribosome): < 3.22

SMILES: N[C@@H](Cc1ccc(O)cc1)C(=O)N[C@@H]1C[C@H](N)[C@@]2(C[C@H](O)[C@H](O)CO2)[C@H](O)[C@H]1O
- pIC50 (Bacterial 70S ribosome): < 3.22

SMILES: N[C@@H]1C[C@H](N)[C@@]2(CC[C@@H](CNC(=O)[C@@H](N)Cc3cnc[nH]3)O2)[C@H](O)[C@H]1O
- pIC50 (Bacterial 70S ribosome): 3.76
- pEC50 [5]: 5.80

SMILES: NCCCC[C@H](N)CN[C@@H]1C[C@H](N)[C@@]2(C[C@H](O)[C@H](O)CO2)[C@H](O)[C@H]1O
- pIC50 (Bacterial 70S ribosome): 3.27
- pEC50 [5]: 6.82

SMILES: NC[C@H]1O[C@H](O[C@H]2[C@H](O)[C@@H](O)[C@H](N)C[C@@H]2N)[C@H](N)[C@@H](O)[C@@H]1O [NEAMINE]
- MIC (Escherichia coli [1]): 150 µg/mL (≈ 465 µM)
- MIC (Escherichia coli [2]): 150 µg/mL (≈ 465 µM)
- MIC (Escherichia coli [3]): 300 µg/mL (≈ 931 µM)
- MIC (Escherichia coli [4]; ATCC 25922, 18 h): 14 µg/mL (≈ 43.4 µM)
- MIC (Pseudomonas aeruginosa; ATCC 27853, 18 h): 73 µg/mL (≈ 226 µM)
- MIC (Staphylococcus aureus; ATCC 29213, 18 h): 5 µg/mL (≈ 15.5 µM)
- pEC50 [5]: 5.02

SMILES: N[C@H](CN[C@@H]1C[C@H](N)[C@@]2(CC[C@@H](O)[C@@H](O)CO2)[C@H](O)[C@H]1O)Cc1ccc(O)cc1
- pIC50 (Bacterial 70S ribosome): < 3.22

SMILES: N[C@@H](Cc1ccc(O)cc1)C(=O)N[C@@H]1C[C@H](N)[C@@]2(CC[C@@H](O)[C@@H](O)CO2)[C@H](O)[C@H]1O
- pIC50 (Bacterial 70S ribosome): < 3.22

SMILES: NCCCC[C@H](N)CN[C@@H]1C[C@H](N)[C@@]2(CC[C@H](O)[C@H](O)CO2)[C@H](O)[C@H]1O
- MIC (Escherichia coli [1]): 118 µg/mL (≈ 313 µM)
- MIC (Escherichia coli [2]): > 118 µg/mL
- MIC (Escherichia coli [3]): 118 µg/mL (≈ 313 µM)
- MIC (Escherichia coli [4]; ATCC 25922, 18 h): 236 µg/mL (≈ 627 µM)
- MIC (Pseudomonas aeruginosa; ATCC 27853, 18 h): > 118 µg/mL
- MIC (Staphylococcus aureus; ATCC 29213, 18 h): 3.8 µg/mL (≈ 10.1 µM)
- pIC50 (Bacterial 70S ribosome): 4.00
- pEC50 [5]: 7.05

- pEC50 [5]: 3.85
SMILES: N[C@@H]1C[C@H](N)[C@@]2(CC[C@@H](O)[C@@H](O)CO2)[C@H](O)[C@H]1O

- pEC50 [5]: 5.19
SMILES: N[C@@H]1C[C@H](N)[C@@]2(C[C@H](O)[C@H](O)CO2)[C@H](O)[C@H]1O

- pEC50 [5]: 4.92
SMILES: NCCCC[C@H](N)C(=O)N[C@@H]1C[C@H](N)[C@@]2(CC[C@H](O)[C@H](O)CO2)[C@H](O)[C@H]1O

SMILES: NCC[C@H](O)C(=O)N[C@@H]1C[C@H](N)[C@@]2(C[C@H](O)[C@H](O)CO2)[C@H](O)[C@H]1O
- pIC50 (Bacterial 70S ribosome): < 3.22
- pEC50 [5]: 4.90

- pEC50 [5]: 5.16
SMILES: NCC[C@H](O)C(=O)N[C@@H]1C[C@H](N)[C@@]2(CC[C@H](O)[C@H](O)CO2)[C@H](O)[C@H]1O

SMILES: NCCCC[C@H](N)C(=O)N[C@@H]1C[C@H](N)[C@@]2(CC[C@@H](O)[C@@H](O)CO2)[C@H](O)[C@H]1O
- pIC50 (Bacterial 70S ribosome): < 3.22
- pEC50 [5]: 5.92

SMILES: N[C@H](CN[C@@H]1C[C@H](N)[C@@]2(CC[C@H](O)[C@H](O)CO2)[C@H](O)[C@H]1O)Cc1ccc(O)cc1
- MIC (Escherichia coli [1]): 129 µg/mL (≈ 313 µM)
- MIC (Escherichia coli [2]): > 129 µg/mL
- MIC (Escherichia coli [3]): > 129 µg/mL
- MIC (Escherichia coli [4]): inactive
- MIC (Pseudomonas aeruginosa): inactive
- MIC (Staphylococcus aureus): inactive
- pIC50 (Bacterial 70S ribosome): < 3.22

SMILES: NCCCC[C@H](N)CN[C@@H]1C[C@H](N)[C@@]2(CC[C@@H](O)[C@@H](O)CO2)[C@H](O)[C@H]1O
- MIC (Escherichia coli [1]): 118 µg/mL (≈ 313 µM)
- MIC (Escherichia coli [2]): > 118 µg/mL
- MIC (Escherichia coli [3]): > 118 µg/mL
- MIC (Escherichia coli [4]; ATCC 25922, 18 h): 236 µg/mL (≈ 627 µM)
- MIC (Pseudomonas aeruginosa; ATCC 27853, 18 h): > 118 µg/mL
- MIC (Staphylococcus aureus; ATCC 29213, 18 h): 14.7 µg/mL (≈ 39 µM)
- pIC50 (Bacterial 70S ribosome): < 3.22
- pEC50 [5]: 6.19

- pEC50 [5]: 4.13
SMILES: N[C@@H]1C[C@H](N)[C@@]2(CC[C@H](O)[C@H](O)CO2)[C@H](O)[C@H]1O

SMILES: NCC[C@H](O)CN[C@@H]1C[C@H](N)[C@@]2(CC[C@H](O)[C@H](O)CO2)[C@H](O)[C@H]1O
- pIC50 (Bacterial 70S ribosome): < 3.22
- pEC50 [5]: 6.03

SMILES: N=C(N)NCCC[C@H](N)C(=O)NC[C@@H]1CC[C@@]2(O1)[C@H](O)[C@@H](O)[C@H](N)C[C@@H]2N
- pIC50 (Bacterial 70S ribosome): 4.01
- pEC50 [5]: 5.82

SMILES: NCCCC[C@H](N)C(=O)NC[C@@H]1CC[C@@]2(O1)[C@H](O)[C@@H](O)[C@H](N)C[C@@H]2N
- MIC (Escherichia coli [1]): > 112 µg/mL
- MIC (Escherichia coli [2]): 112 µg/mL (≈ 312 µM)
- MIC (Escherichia coli [3]): > 112 µg/mL
- MIC (Escherichia coli [4]; ATCC 25922, 18 h): > 112 µg/mL
- MIC (Pseudomonas aeruginosa; ATCC 27853, 18 h): > 112 µg/mL
- MIC (Staphylococcus aureus; ATCC 29213, 18 h): 7.2 µg/mL (≈ 20 µM)
- pIC50 (Bacterial 70S ribosome): 3.49
- pEC50 [5]: 5.85

SMILES: NC[C@@H]1O[C@H](O[C@H]2[C@@H](O)[C@H](O[C@@H]3[C@@H](O)[C@H](N)C[C@H](N)[C@H]3O[C@H]3O[C@H](CO)[C@@H](O)[C@H](O)[C@H]3N)O[C@@H]2CO)[C@H](N)[C@@H](O)[C@@H]1O [PAROMOMYCIN]
- MIC (Escherichia coli [1]): 113 µg/mL (≈ 184 µM)
- MIC (Escherichia coli [2]): 113 µg/mL (≈ 184 µM)
- MIC (Escherichia coli [3]): 113 µg/mL (≈ 184 µM)
- MIC (Escherichia coli [4]; ATCC 25922, 18 h): 4 µg/mL (≈ 6.5 µM)
- MIC (Pseudomonas aeruginosa; ATCC 27853, 18 h): 113 µg/mL (≈ 184 µM)
- MIC (Staphylococcus aureus; ATCC 29213, 18 h): 4 µg/mL (≈ 6.5 µM)

SMILES: N[C@@H](Cc1ccc(O)cc1)C(=O)N[C@@H]1C[C@H](N)[C@@]2(CC[C@H](O)[C@H](O)CO2)[C@H](O)[C@H]1O
- pIC50 (Bacterial 70S ribosome): 3.35

Source: ChEMBL document CHEMBL3112524, “Rigid spiroethers targeting the decoding center of the bacterial ribosome” (Bioorg Med Chem, 2014)
